The subject of one series is SOD1. Description: Test Example 2: inhibitory activity of NM031 conjugated siRNA on SOD1 by intrathecal administration to mice. Format: in vivo, C57BL/6j mice. Conditions: intrathecal, 800 μg per mouse, D9. The protocol:
6-8 Week-old C57BL/6j mice were randomly grouped into 4 groups by body weight. PBS group was dosed with siRNA-free PBS solution, RX899001 group was dosed with siRNA compound RX899001 without vector conjugation, RZ899001 group was dosed with siRNA RZ899001 (the sense strand with the Uhd conjugation at Position 4) prepared in Example 1, and RZ899008 was dosed with siRNA RZ899008 (the sense strand with the NM031 conjugation at Position 4) prepared in Example 1. Mices in each group were anesthetized with isoflurane. After anesthetization, lumbar region thereof was sprayed wet with 75% disinfecting alcohol. 10 μL (concentration […]) of siRNA drug containing PBS solvent was sucked with an insulin injection needle, the mouse lumbar region was pinched with the left-hand index finger and thumb, patella crest was propped against, and needle was held by the right hand. The needle was bent by forceps in advance, wherein the needle was first bent in the middle by 80° to 90°, then a front half part of the needle was bent in half, and the whole needle was bent in an are shape of about 60° to 90°. Mouse abdominal region was padded with an article with a thickness of about 2 cm. The needle was inserted from a joint of lumbar spines L5 and L6 of mice, and when inserting the needle, the hand was slightly inclined forwards to insert the needle. […] After completion of the injection, the needle was slowly withdrawn at uniform velocity. The administration dose to each mouse in RX899001 group, RZ899001 group and RZ899008 group was 800 μg, a total volume injected was 10 μL, and the PBS group was administered with the same volume of siRNA-free PBS solution. After the animals woke up, the animals were returned back to the animal feeding room and further fed. The day of administration was recorded as first day (D1), and the mice were sacrificed on ninth day (D9). Lumbar spine, thoracic spine and cerebellum were respectively taken and stored in the RNAlater.
RNA extraction: an appropriate amount of lumbar spine, thoracic spine and cerebellum samples were respectively taken out from the RNAlater, and smashed for 60 s in Tissuelyser type II full-automatic tissue homogenizer, and total RNAs of various tissue samples were extracted using the full-automatic nucleic acid extraction instrument and the nucleic acid extraction kit from Zhejiang Hanwei Science and Technology Co. Ltd. according to methods described in instructions. Reverse transcription reaction: 1 μg of the extracted total RNAs of various tissue samples were respectively taken, and configured into 20 μL of reverse transcription system according to a method described in kit instructions by using a reverse transcription kit (Reverse Transcription System, A3500) from Promega Corporation and selecting Oligo (dT)15 reverse transcription primers, and the reverse transcription reaction was completed. After the reaction was ended, 80 μL of RNase-Free water was added into the reverse transcription system to provide cDNA solution for Real-time PCR detection.
Real-time PCR detection: 20 μL of Real-time PCR reaction system per PCR detection well was configured according to a method described in kit instructions using SYBR™ Select Master Mix (Catalog number: 4472908) reagent from ABI company. Each detection system contained 5 μL of cDNA template obtained from the above reverse transcription reaction, 10 μL of SYBR™ Select Master Mix, 0.5 μL of 10 μM upstream primers, 0.5 μL of 10 μM downstream primers (see TABLE 5 for primer information), and 4 μL of RNase-Free H2O. The configured reaction system was subjected to Real-time PCR amplification on ABI StepOnePlus PCR instrument by a three-step method, wherein an amplification procedure was pre-denaturation at 95° C. for 10 min, then denaturation at 95° C. for 30 s, annealing at 60° C. for 30 s, and extension at 72° C. for 30 s; and processes of denaturation, annealing, and extension were repeated for 40 cycles. […]

For a further series, the system named is target gene SOD1. As to the kind of experiment: Test Example 3: inhibitory activity of lipid conjugated siRNA sequences on SOD1 by lateral ventricle administration to mice. Format: in vivo, C57BL/6j mice. Conditions: 200 μg per mouse, D5. The protocol:
6-8 Week-old C57BL/6j mice were randomly grouped by body weight. Mice in each group were administered with siRNA by lateral ventricle administration, with an administration dose per mouse depending on a specific test. Taking Bregma in mouse brain as point 0 (origin), coordinates of right ventricle were found using the cerebral stereotaxic apparatus and position was marked on surface of skull (position of lateral ventricle was AP (anteroposterior, bregma anterior and posterior): −0.58 mm, ML (mediolateral, left and right of middle raphe): −1.2 mm, DV (dorsoventral, up and down cerebral dura mater plane): −2.2 mm). A dental electric drill was used to drill in the skull above a position of interest, and then medicament was injected into the lateral ventricle by a micro-dosing pump, wherein a total injection volume was 5 μL, and injection duration was 10 min. Needle was retained for 5 min after completion of injection, and then slowly withdrawn. Afterwards, needle hole was sealed with biomedical glue, and then head skin was adhered. After animals woke up, the animals were returned back to animal house and further fed. PBS control group was administered with the same volume of siRNA-free PBS solution. The day of administration was recorded as 0 day (D0), and the mice were sacrificed at observation point after the administration. Different parts of brain region were respectively taken and stored in the RNAlater.
RNA extraction: the above tissue samples were taken out from the RNAlater, and smashed for 60 s in Tissuelyser type II full-automatic tissue homogenizer, and total RNAs of various tissue samples were extracted using the full-automatic nucleic acid extraction instrument and the nucleic acid extraction kit from Zhejiang Hanwei Science and Technology Co. Ltd. according to methods described in instructions.
Reverse transcription reaction: 1 μg of the extracted total RNAs of the tissue samples were taken, and configured into 20 μL of reverse transcription system according to a method described in kit instructions by using a reverse transcription kit (Reverse Transcription System, A3500) from Promega Corporation and selecting Oligo (dT)15 reverse transcription primers, and the reverse transcription reaction was completed. After the reaction was ended, 80 μL of RNase-Free water was added into the reverse transcription system to provide cDNA solution for Real-time PCR detection.
Real-time PCR detection: 20 μL of Real-time PCR reaction system per PCR detection well was configured according to a method described in kit instructions using SYBR™ Select Master Mix (Catalog number: 4472908) reagent from ABI company. Each detection system contained 5 μL of cDNA template obtained from the above reverse transcription reaction, 10 μL of SYBR™ Select Master Mix, 0.5 μL of 10 μM upstream primers, 0.5 μL of 10 μM downstream primers, and 4 μL of RNase-Free H2O. The configured reaction system was subjected to Real-time PCR amplification on ABI StepOnePlus PCR instrument by a three-step method, wherein an amplification procedure was pre-denaturation at 95° C. for 10 min, then denaturation at 95° C. for 30 s, annealing at 60° C. for 30 s, and extension at 72° C. for 30 s; and processes of denaturation, annealing, and extension were repeated for 40 cycles. Gene expression differences were calculated by the ΔΔCt method after completion of the procedure.
In the real-time fluorescence quantitative PCR method, relative quantitative calculation of remaining expression level and inhibition rate of gene mRNA of interest in various test groups was performed by the ΔΔCt method, and the calculation method is as follows: […]

Strand notation (5' to 3'): a small letter for the sugar, then the base; units joined by * are phosphorothioate-linked, units joined directly phosphodiester-linked; [ ] holds rarer units or linkages, { } end groups; capitals alone tell only the bases. m = 2'-O-methyl; f = 2'-fluoro

“RX899001: siRNA compound without vector conjugation, SOD1 sequence; sense SEQ ID NO: 1, antisense SEQ ID NO: 2 (sense mU*mU*mUmUmAmAfUfCfCmUmCmAmCmUmCmUmAmAmA; antisense mU*fU*mUmAmGfAmGmUmGmAmGmGmAfUmUfAmAmAmA*mU*mG) [reference compound]”: in the series with SOD1, the “Cerebellum Mean value of inhibition rate %” value was 14.01%, the “Lumbar spine Mean value of inhibition rate %” value is given as 7.54% and the “Thoracic spine Mean value of inhibition rate %” value was 41.98%.
The corresponding values for “RZ899001: control siRNA, the sense strand with the Uhd conjugation at Position 4; SEQ ID NO: 4 / 2 (sense UUUNAAUCCUCACUCUAAA; antisense UUUAGAGUGAGGAUUAAAAUG; Uhd conjugate at sense position 4; modified_base 1..2 OTHER; 2'-methoxy and 5'-thiophosphate modified nucleotides; modified_base 3 OTHER; 2'-methoxy modified nucleotide; modified_base 4 OTHER; n is the synthetic nucleotide analog Uhd as described in the disclosure.; modified_base 5..6 OTHER; 2'-methoxy modified nucleotides; modified_base 7..9 OTHER; 2'-fluoro modified nucleotides; modified_base 10..19 OTHER; 2'-methoxy modified nuc; modified_base 1 OTHER; 2'-methoxy and 5'-thiophosphate modified nucleotide; modified_base 2 OTHER; 2'-fluoro and 5'-thiophosphate modified nucleotide; …) [reference compound]” are 60.22%, 64.13% and 60.27%.
On to “RZ899052: siRNA, the sense strand with the NM058 conjugation at Position 5; SEQ ID NO: 5 / 22 (sense UUUUNAUCCUCACUCUAAA; antisense UUUAGAGUGAGGAUUAAAAUG; NM058 conjugate at sense position 5; modified_base 1..2 OTHER; 2'-methoxy and 5'-thiophosphate modified nucleotides; modified_base 3..4 OTHER; 2'-methoxy modified nucleotides; modified_base 5 OTHER; n is the synthetic nucleotide analog NM058 as described in the disclosure(e.g., NM058-1 (1N-(9-[(2S,5R)-5-{[bis(4-methoxyphenyl)(phenyl)methoxy]methyl}-3,4-dihydroxytetrahydrofuran-2-yl]-9H-purin-6-yl)benzamide)).; modified_base 6 OTHER; modified_base 1 OTHER; 2'-methoxy and 5'-thiovinylphosphonate modified nucleotide; modified_base 2 OTHER; 2'-fluoro and 5'-thiophosphate modified nucleotide; …)”, for which, in the series with target gene SOD1, the “Cerebellum Mean value of inhibition rate %” value was 53.02%, the “Cortex Mean value of inhibition rate %” value is 62.93% and the “Hippocampus Mean value of inhibition rate %” value was found to be 87.35%.
As for “RZ899053: siRNA, the sense strand with the NM058 conjugation at Position 6; SEQ ID NO: 6 / 22 (sense UUUUANUCCUCACUCUAAA; antisense UUUAGAGUGAGGAUUAAAAUG; NM058 conjugate at sense position 6; modified_base 1..2 OTHER; 2'-methoxy and 5'-thiophosphate modified nucleotides; modified_base 3..5 OTHER; 2'-methoxy modified nucleotides; modified_base 6 OTHER; n is the synthetic nucleotide analog NM058 as described in the disclosure(e.g., NM058-1 (1N-(9-[(2S,5R)-5-{[bis(4-methoxyphenyl)(phenyl)methoxy]methyl}-3,4-dihydroxytetrahydrofuran-2-yl]-9H-purin-6-yl)benzamide)).; modified_base 7..9 OTHE; modified_base 1 OTHER; 2'-methoxy and 5'-thiovinylphosphonate modified nucleotide; modified_base 2 OTHER; 2'-fluoro and 5'-thiophosphate modified nucleotide; …)”, in the series on target gene SOD1, the “Cerebellum Mean value of inhibition rate %” value worked out at 42.55%, the “Cortex Mean value of inhibition rate %” value came out at 55.87% and the “Hippocampus Mean value of inhibition rate %” value is on record as 74.13%.
